Read-outs that look alike come from different tables or passages of the source.
Key:
[1] = biological target: T1, steroid sulphatase (Steryl Sulphatase EC 3.1.6.2) in MCF-7 cells (Homo sapiens, UniProt P08842); assay: Inhibition of Steroid Sulphatase Activity in MCF-7 cells (intact MCF-7 human breast cancer cells, [6,7-^3 H]oestrone-3-sulphate substrate); assay type: cell-based
T1 construct: intact MCF-7 human breast cancer cells; endogenous in cells; host or cells: MCF-7 human breast cancer cells
T1 sequence (P08842 22-583): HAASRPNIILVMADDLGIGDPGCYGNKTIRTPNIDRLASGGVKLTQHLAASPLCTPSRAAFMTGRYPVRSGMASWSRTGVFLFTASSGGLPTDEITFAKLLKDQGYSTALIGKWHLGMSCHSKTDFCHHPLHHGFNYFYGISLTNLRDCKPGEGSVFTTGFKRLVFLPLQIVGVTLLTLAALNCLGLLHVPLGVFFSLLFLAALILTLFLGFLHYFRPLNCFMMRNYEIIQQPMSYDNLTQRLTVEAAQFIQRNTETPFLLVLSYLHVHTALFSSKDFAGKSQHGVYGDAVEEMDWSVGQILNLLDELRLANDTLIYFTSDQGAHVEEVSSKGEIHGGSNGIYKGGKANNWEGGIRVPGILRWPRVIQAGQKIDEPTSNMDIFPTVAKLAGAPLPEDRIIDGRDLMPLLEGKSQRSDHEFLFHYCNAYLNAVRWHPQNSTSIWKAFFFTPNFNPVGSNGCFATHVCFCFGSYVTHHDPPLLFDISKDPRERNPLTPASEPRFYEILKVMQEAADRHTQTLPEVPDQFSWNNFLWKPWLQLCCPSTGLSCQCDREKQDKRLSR
Description: Steroid sulphatase is defined as: Steryl Sulphatase EC 3.1.6.2.
Steroid sulphatase activity was measured in vitro using intact MCF-7 human breast cancer cells. This hormone dependent cell line is widely used to study the control of human breast cancer cell growth. […] Up to 30 replicate 25 cm^2 tissue culture flasks were seeded with approximately 1×10^5 cells/flask using the above medium. Cells were grown to 80% confluency and medium was changed every third day.
Intact monolayers of MCF-7 cells in triplicate 25 cm^2 tissue culture flasks were washed with Earle's Balanced Salt Solution (EBSS from ICN Flow, High Wycombe, U.K.) and incubated for […] at 37° C. with 5 pmol (7×10^5 dpm) [6,7-^3 H]oestrone-3-sulphate (specific activity 60 Ci/mmol from New England Nuclear, Boston, Mass., U.S.A.) in serum-free MEM (2.5 ml) together with 10 μM of each of four oestrone-3-phosphonates:
After incubation each flask was cooled and the medium (1 ml) was pipetted into separate tubes containing [^14 C]oestrone (7×10^3 dpm) (specific activity […] from Amersham International Radiochemical Centre, Amersham, U.K.). The mixture was shaken thoroughly for 30 seconds with toluene (5 ml). […] A portion (2 ml) of the organic phase was removed, evaporated and the ^3 H and ^14 C content of the residue determined by scintillation spectrometry. The mass of oestrone-3-sulphate hydrolysed was calculated from the ^3 H counts obtained (corrected for the volumes of the medium and organic phase used, and for recovery of [^14 C]oestrone added) and the specific activity of the substrate. […] The number of cell nuclei per flask was determined using a Coulter Counter after treating the cell monolayers with Zaponin.
Results are expressed as the mean ±1 S.D. of the total product (oestrone+oestradiol) formed during the incubation period (20 hours) calculated for 10^6 cells and as a percentage reduction (inhibition) over incubations containing no oestrone-3-phosphonate for values showing statistical significance. […]

[2] = biological target: T1, steroid sulphatase (Steryl Sulphatase EC 3.1.6.2) in MCF-7 cells; assay: as above; assay type: cell-based; conditions: for Steroid Sulphatase Activity in MCF-7 cells in the presence of oestrone-3-sulphonates: 10 μM, mean ± 1 S.D. n = 3, control 80.1 ± 3.3 (E1 -3-MeS: control 46.5 ± 2.3), *p ≤ 0.05 (E1 -3-BuS), **p ≤ 0.01 (EtS, CamS, MeS), E1 -3-MePhS: mean of 2 estimates, control 71.3; for inhibition at 10 µM: MCF7, Table II, inhibition over control incubations, read-out: % reduction over control (% inhibition), oestrone-3-sulphonates
[3] = biological target: T2, steroid sulphatase in placental microsomes (Homo sapiens, UniProt P08842); assay: Inhibition of Steroid Sulphatase Activity in Placental Microsomes ([6,7-^3 H]oestrone-3-sulphate substrate); assay type: biochemical; conditions: 20 μM oestrone-3-sulphate, 100 μg/ml protein, 20 minutes, 37° C., calculated IC50
T2 construct: Sulphatase-positive human placenta from normal term pregnancies; from tissue; host or cells: human term placenta (Obstetric Ward, St. Mary's Hospital, London), 2000 g supernatant of the homogenate
T2 sequence (P08842 22-583): T1 sequence (P08842 22-583)
Description: Sulphatase-positive human placenta from normal term pregnancies (Obstetric Ward, St. Mary's Hospital, London) were thoroughly minced with scissors and washed once with cold phosphate buffer (pH 7.4, 50 mM) then re-suspended in cold phosphate buffer (5 ml/g tissue). Homogenisation was accomplished with an Ultra-Turrax homogeniser, using three 10 second bursts separated by 2 minute cooling periods in ice. Nuclei and cell debris were removed by centrifuging (4° C.) at 2000 g for 30 minutes and portions (2 ml) of the supernatent were stored at -20° C. The protein concentration of the supernatents was determined by the method of Bradford (Anal. Biochem., 72, 248-254 (1976)).
Incubations (1 ml) were carried out using a protein concentration of 100 μg/ml, substrate concentration of 20 μM [6,7-^3 H]oestrone-3-sulphate (specific activity 60 Ci/mmol from New England Nuclear, Boston, Mass., U.S.A.) and an incubation time of 20 minutes at 37° C. The following oestrone-3-phosphonates were added to separate samples at a range of concentrations individually adjusted to span the 50% inhibition level:
After incubation each sample was cooled and the medium (1 ml) was pipetted into separate tubes containing [^14 C]oestrone (7×10^3 dpm) (specific activity […] from Amersham International Radiochemical Centre, Amersham, U.K.). The mixture was shaken thoroughly for 30 seconds with toluene (5 ml). […] A portion (2 ml) of the organic phase was removed, evaporated and the ^3 H and ^14 C content of the residue determined by scintillation spectrometry. The mass of oestrone-3-sulphate hydrolysed was calculated from the ^3 H counts obtained (corrected for the volumes of medium and organic phase used, and for recovery of [^14 C]oestrone added) and the specific activity of substrate.
Results for steroid sulphatase activity are expressed in Table III as calculated IC50 values (i.e. the concentration of oestrone-3-phosphonate which produced 50% inhibition in relation to control). […]

[4] = Table IV, read-out: Steroid Sulphatase Activity in placental microsomes in the presence of oestrone-3-sulphonates (IC50)

Compound | Steroid Sulphatase Activity in MCF-7 cells in the presence of oestrone-3-sulphonates [2] [fmol/20 hr/10^6 cells] | inhibition at 10 µM [2] [%] | other results
C[C@]12CC[C@@H]3c4ccc(OP(=O)(O)c5ccccc5)cc4CC[C@H]3[C@@H]1CCC2=O [E1-3-PhP, oestrone-3-phenylphosphonate] | – | – | % reduction over control (% inhibition), oestrone-3-phosphonates ([1]; 10 μM, Table I, inhibition over incubations containing no oestrone-3-phosphonate): 70.3%; Steroid Sulphatase Activity in MCF-7 cells in the presence of oestrone-3-phosphonates ([1]; 10 μM, mean ± 1 S.D. n = 3, control 46.5 ± 2.3, ***p ≤ 0.001, E1 -3-HP: mean of 2 estimates, control 71.3): 13.8 ± 0.7 fmol/20 hr/10^6 cells
CCS(=O)(=O)Oc1ccc2c(c1)CC[C@@H]1[C@@H]2CC[C@]2(C)C(=O)CC[C@@H]12 [E1-3-EtS, oestrone-3-ethylsulphonate] | 58.4 ± 1.9 | 27.1 | –
C[C@]12CC[C@@H]3c4ccc(O[PH](=O)O)cc4CC[C@H]3[C@@H]1CCC2=O [E1-3-HP, oestrone-3-hydrogen-phosphonate] | – | – | inhibition at 10 µM ([1]; MCF7, Table I, inhibition over incubations containing no oestrone-3-phosphonate, read-out: % reduction over control (% inhibition), oestrone-3-phosphonates): 80.1%; IC50 ([3]; Table III, read-out: Steroid Sulphatase Activity in placental microsomes in the presence of oestrone-3-phosphonates (IC50)): 5000 µM
Cc1ccc(S(=O)(=O)Oc2ccc3c(c2)CC[C@@H]2[C@@H]3CC[C@]3(C)C(=O)CC[C@@H]23)cc1 [E1-3-MePhS, oestrone-3-p-toluenesulphonate] | – | 90.5 | IC50 [3, 4]: 130 µM
CC1(C)C2CCC1(CS(=O)(=O)Oc1ccc3c(c1)CC[C@@H]1[C@@H]3CC[C@]3(C)C(=O)CC[C@@H]13)C(=O)C2 (stereo partly drawn) [E1-3-CamS, oestrone-3-camphorylsulphonate] | 62.7 ± 1.8 | 21.7 | –
CCCCS(=O)(=O)Oc1ccc2c(c1)CC[C@@H]1[C@@H]2CC[C@]2(C)C(=O)CC[C@@H]12 [E1-3-BuS, oestrone-3-n-butylsulphonate] | 66.8 ± 3.3 | 16.6 | –
C[C@]12CC[C@@H]3c4ccc(OS(C)(=O)=O)cc4CC[C@H]3[C@@H]1CCC2=O [E1-3-MeS, oestrone-3-methylsulphonate] | 21.3 ± 3.5 | 54.2 | IC50 [3, 4]: 205 µM
